From patent US12416008B2, “Compositions and methods of use for small-molecule regulation of CRISPR-Cas9 activity using RNA aptamers” (priority 2019, dated 2025)

System: galK 1 site
Experiment: red/white colony screen of editing efficiency at the galK 1 site (CREATE recombineering)
Assay type: cell-based, E. coli MG1655
Settings: for Editing Efficiency 1 mM Theo: induced for 3 hours with 1 mM theophylline; for Editing Efficiency no Theo: no theophylline, 3 hours recovery
Procedure: Candidates from this enriched library were analyzed to inform an improved library design. After three selection/counterselection steps, cells were plated on M63 selection medium^20 and 150 colonies were picked. Each isolated candidate was then transformed into unedited E. coli to screen for theophylline-responsive constructs using a red/white colony assay to quantify the percentage of edited bacteria. Colonies with an unedited galK site appear red whereas edited colonies appear white (FIG. 5). The percentage of white colonies is considered the editing efficiency. Gene editing was induced as previously described with or without adding theophylline and the editing efficiencies were compared.
The protocol established by Garst et al was mainly followed. LB containing kanamycin and chloramphenicol was inoculated with MGλ9 cells and grown overnight at 30° C. The stationary culture was diluted 100 fold in LB, containing chloramphenicol, kanamycin and 0.2% arabinose and grown to an OD600=0.4-0.6 in 25 mL LB. The culture was heat-shocked in a shaking waterbath at 42° C. for 15 minutes to induce expression of the lambda-red proteins from pSIM5. Then, the culture was washed in two volumes of ice-cold deionized water, resuspended in 500 μl deionized water and 50 μl of the cell suspension was electroporated with 200 ng of a CREATE plasmid that encodes gRNA and homology template. The transformants were recovered in 4 mL of LB, containing 0.2% arabinose and optionally 1 mM theophylline or 1 μM anhydrotetracycline (ATC), and shaken at 37° C. for 3 hours before plating on MacConkey Agar. To estimate the number of cfu, aliquots were plated on LB agar 1 hour after transformation.
In order to assess the frequency of gene editing, a red/white screen was used to visualize the introduction of a stop codon into the galK gene by CREATE. The original CREATE protocol was used for inducing gene editing and after 3 hours of recovery (with or without the agRNA ligand) a series of dilutions of the cultures were plated on MacConkey Agar plates containing 1% galactose. Bacterial colonies with a mutated galK* site appear white on the plates, whereas non-edited colonies appear red. The editing efficiency could be calculated by dividing the number of edited colonies over the total number of colonies. By comparing the editing efficiency in presence versus absence of the ligand, a dynamic range of the in vivo activity could be determined.
When screening the enriched libraries for switchable constructs, the transformants were recovered in 4 mL of LB broth, a dilution series was plated for every construct and the experiment was only carried out once due to the large volume of colonies screened (˜250 in total). When the constructs A9 and GU19 were characterized in detail, triplica of the experiment were carried out.

Substance	Editing Efficiency 1 mM Theo [%]	Editing Efficiency no Theo [%]
A14: agRNA cassette GGAGGTACGGTGCC, SEQ ID NO: 10 (expressed or natural sequence)	87	2
AU19: agRNA cassette AATAGGCCCGCAGT, SEQ ID NO: 32 (expressed or natural sequence)	10	0
AU9: agRNA cassette AAACGGCCCACTGT, SEQ ID NO: 23 (expressed or natural sequence)	22	1
AU8: agRNA cassette ACGGGGCCTAATAT, SEQ ID NO: 22 (expressed or natural sequence)	48	0.3
GU3: agRNA cassette GCAGGGCCTCATTT, SEQ ID NO: 36 (expressed or natural sequence)	0	0
GU9: agRNA cassette GTTCGGCCCCGACT, SEQ ID NO: 41 (expressed or natural sequence)	0	0
AU7: agRNA cassette AGTAGGCCTTTCAT, SEQ ID NO: 21 (expressed or natural sequence)	58	0
AU12: agRNA cassette AGAGGGCCGGGCGT, SEQ ID NO: 26 (expressed or natural sequence)	26	0
AU17: agRNA cassette AAAGGGCCAGGCAT, SEQ ID NO: 30 (expressed or natural sequence)	4	0
GC4: agRNA cassette GGTCGGCCAGTAGC, SEQ ID NO: 55 (expressed or natural sequence)	1	0
GC2: agRNA cassette GTCAGGCCTATACC, SEQ ID NO: 53 (expressed or natural sequence)	0	0
A26: agRNA cassette GGGGGGCCACGCGC, SEQ ID NO: 13 (expressed or natural sequence)	89	5
RG53: agRNA cassette AGTGAGCTAAAAAT, SEQ ID NO: 3 (expressed or natural sequence)	22	0
GU8: agRNA cassette GGCAGGCCTCTTCT, SEQ ID NO: 40 (expressed or natural sequence)	1	0
GU11: agRNA cassette GTATGGCCTCGGAT, SEQ ID NO: 43 (expressed or natural sequence)	0	0
GC18: agRNA cassette GATTGGCCGCAACC, SEQ ID NO: 68 (expressed or natural sequence)	48	0
GU14: agRNA cassette GACTGGCCTATAAT, SEQ ID NO: 46 (expressed or natural sequence)	2	0

Substance	Editing Efficiency 1 mM Theo [%]	Editing Efficiency no Theo [%]
AU1: agRNA cassette AGGGGGCCTATAAT, SEQ ID NO: 15 (expressed or natural sequence)	2	0
GC15: agRNA cassette GCATGGCCTACTCC, SEQ ID NO: 65 (expressed or natural sequence)	21	1
GC8: agRNA cassette GGACGGCCCTGTGC, SEQ ID NO: 59 (expressed or natural sequence)	0	1
GU17: agRNA cassette GTAAGGCCGCCGAT, SEQ ID NO: 49 (expressed or natural sequence)	0	0
GU15: agRNA cassette GGACGGCCTACAAT, SEQ ID NO: 47 (expressed or natural sequence)	11	0
AU5: agRNA cassette ACTCGGCCTGAACT, SEQ ID NO: 19 (chemistry not given here)	43	0
AU3: agRNA cassette ACAAGGCCCATAAT, SEQ ID NO: 17 (expressed or natural sequence)	72	1
AU6: agRNA cassette AAGGGGCCTATAAT, SEQ ID NO: 20 (expressed or natural sequence)	77	5
AU15: agRNA cassette ACCCGGCCATTCAT, SEQ ID NO: 28 (expressed or natural sequence)	5	0
GU1: agRNA cassette GACGGGCCTAATAT, SEQ ID NO: 34 (expressed or natural sequence)	0	0
G1B1: agRNA, 2×4 IL and upper stem cassette GTATCGCTTAAGCC, SEQ ID NO: 2 (expressed or natural sequence)	59	1
GU18: agRNA cassette GATTGGCCTACGGT, SEQ ID NO: 50 (expressed or natural sequence)	1	0
GC10: agRNA cassette GAGCGGCCACAACC, SEQ ID NO: 61 (expressed or natural sequence)	0	0
GU16: agRNA cassette GGGAGGCCAGCGAT, SEQ ID NO: 48 (expressed or natural sequence)	0	1
AU14: agRNA cassette AGTGGGCCAGCCTT, SEQ ID NO: 27 (expressed or natural sequence)	17	0
GU2: agRNA cassette GCGAGGCCTACTAT, SEQ ID NO: 35 (expressed or natural sequence)	0	0
